Assay results: EP0603031A2, “Antiviral antibiotic BU-4724V and preparation thereof” (Bristol-Myers Squibb Company, priority 1992, dated 1994)
Like-named read-outs stand apart in the source and are kept apart here. Positions of bridges follow the written chain, without caps; N, C: chain ends. Residues, ends and D or L forms follow the SMILES beside them.

Experiments:
[1] = test system: herpes simplex virus type 1 (HSV-1) using the KOS strain; test: Anti-HSV assay, inhibition of virus-induced cytopathic effect in Vero cells; type: cell-based; settings: HSV-1 KOS, 72 hours at 37°C
Method: (§1) The in vitro antiviral activity of BU-4724V was assessed against the herpes simplex virus type 1 (HSV-1) using the KOS strain. The assay was done according to the reported protocol of C. McLaren et al. in Antiviral Research, 3, 223-234, (1986) with minor modification. Briefly, 50 µl of Eagle's MEM medium containing BU-4724V and then 200 µl of the Vero cell suspension (2 X 10⁴ cells/200 µl) were added to a well of a 96-well microtiter plate. To the well, 50µl of medium containing approximately 30 times of the 50% tissue culture infectious dose (50% TCID) of virus was added. In a parallel experiment, the same set of cells without virus infection was prepared, which was for the determination of cytotoxicity of the sample. After 72 hours incubation at 37°C, the inhibition degree of virus-induced cytopathic effect and cytotoxicity by the sample were determined, respectively. The ID₅₀ is expressed as the concentration of a compound showing 50% growth inhibition of the cytopathic effect and the TD₅₀ as the concentration of a compound showing 50% growth inhibition of the cells in the absence of virus. Acyclovir was used as the reference compound for anti-HSV activity in the assay.

Vero cell = test: Cytotoxicity in Vero cells without virus infection; type: cell-based; settings: Vero cells in the absence of virus, 72 hours at 37°C
Method: as §1

HIV-2 CBL-20 = test: XTT anti-HIV assay in CEM-SS cells; type: cell-based, human immunodeficiency virus; settings: HIV-2 CBL-20 strain, read-out: IC₅₀
Source text: The CEM-SS cells were obtained from Peter Nara, AIDS Research and Reference Program, Division of AIDS, NIAID, NIH.
(§2) The antiviral effect is expressed as the inhibitory concentration of a compound which reduces the number of viruses of the infected culture to 50% of that of the drug - untreated, control culture (IC₅₀). The cytotoxicity is expressed as the concentration of a compound which yields 50% of the number of viable cells of the untreated control cultures (IC₅₀). In this assay, 2',3'-Dideoxyinosine (ddI, Videx®) was also tested for anti-HIV activity.

CEM-SS cells [2] = test: Cytotoxicity in CEM-SS cells (XTT assay); type: cell-based; settings: result in words
Method: as §2

[3] = Cytotoxicity in CEM-SS cells (XTT assay); type: cell-based; settings: human, 50% of viable cells of untreated control, read-out: cytotoxicity IC₅₀
Method: as §2

S. typhi 901 = type: cell-based; settings: 901, 18 h, pH 7
HIV-1 RF = test: XTT anti-HIV assay in CEM-SS cells; type: cell-based, human immunodeficiency virus; settings: HIV-1 RF strain, read-out: IC₅₀
Method: as §2

HIV-1 IIIb = test: XTT anti-HIV assay in CEM-SS cells; type: cell-based, human immunodeficiency virus; settings: HIV-1 IIIb strain, read-out: IC₅₀
Method: as §2

CEM-SS cells [4] = test system: CEM-SS cells
Method: as §2

[5] = test system: human immunodeficiency virus; test: XTT anti-HIV assay in CEM-SS cells (strain not stated); type: cell-based; settings: Human immunodeficiency virus 1, anti-HIV activity, read-out: IC₅₀

| Compound | ID₅₀ [1] | TD₅₀ (Vero cell) | solubility (in alkaline water) | solubility (in dimethyl sulfoxide, dimethylformamide, methanol and ethanol) | solubility (in water, ethyl acetate, chloroform, benzene, n-hexane and petroleum ether) | IC50 (HIV-2 CBL-20) | cytotoxicity (CEM-SS cells [2]) | CC50 [3] | MIC (S. typhi 901) | IC50 (HIV-1 RF) | IC50 (HIV-1 IIIb) | cytotoxicity (CEM-SS cells [4]) | IC50 [5] |
| --- | --- | --- | --- | --- | --- | --- | --- | --- | --- | --- | --- | --- | --- |
| Nc1nc2c(ncn2COCCO)c(=O)[nH]1 [Acyclovir] | 0.28 µg/mL | >100 µg/mL | – | – | – | – | – | – | – | – | – | – | – |
| CC[C@H](C)[C@@H]1NC(=O)[C@H](C)NC(=O)[C@H](Cc2ccc(O)cc2)NC(=O)CNC(=O)[C@@H]2CSSC[C@@H]3NC(=O)C[C@H](NC(=O)[C@H](CC(N)=O)NC(=O)[C@H](CSSC[C@@H](C(=O)N[C@@H](Cc4ccccc4)C(=O)N[C@@H](Cc4c[nH]c5ccccc45)C(=O)O)NC(=O)[C@H](C(C)C)NC1=O)NC(=O)[C@H](CO)NC(=O)CNC(=O)[C@H](C(C)C)NC(=O)CNC(=O)[C@H](CC(C)C)NC3=O)C(=O)N[C@@H](Cc1ccccc1)C(=O)N[C@@H](C)C(=O)NCC(=O)N2 [BU-4724V] (CLGVGSCNDFAGCGYAIVCFW-OH; disulfide 1-13, 7-19; lactam N-9; C-terminus assumed) | 48 µg/mL | >100 µg/mL | slightly soluble | soluble | insoluble | 230 nM | very weak cytotoxicity | ~150 µM | >100 µg/mL | 90 to 600 nM | 460 nM | – | – |
| O=c1[nH]cnc2c1ncn2[C@H]1CC[C@@H](CO)O1 [ddI, 2',3'-Dideoxyinosine] | – | – | – | – | – | – | – | – | – | – | – | very weak cytotoxicity | 1000 to 2000 nM |
